52 molecules from publication PMC12040169 (PLOS Biology, 2025) can be followed below.

SMILES strings stand for the structures.

A short description of this series: in vitro. To be noted: human, hela cells, % viability.
Take `O=C(CC1CCCC1)N1CCC(c2cc(CCOc3cccc(C(F)(F)F)c3)[nH]n2)C1` (stereo not shown) [CBK286267]: the viability at 28.5 h, 10 µM was 89.4%.

For `O=C1C(C2CCN(Cc3ccc4ncccc4c3)CC2)CC=CCN1Cc1ccccc1` (stereo not shown) [CBK286269], the viability at 28.5 h, 10 µM stood at 108%.

Take `CN(C)C(=O)C1(Cc2ccc(-c3cccs3)cc2)CCN(C(=O)c2ccccc2)CC1` [CBK286270]: the viability at 28.5 h, 10 µM came out at 85.5%.

As for `O=C(CCC1CCCCC1)N1CCC(c2n[nH]cc2C(=O)N2CCc3ccccc3C2)CC1` [CBK286271], the viability at 28.5 h, 10 µM was determined as 95.4%.

On to `COc1ccccc1OCc1cc(C)c(C(=O)N2CCN(C)CC2c2ccccc2)o1` (stereo not shown) [CBK286273], for which the viability at 28.5 h, 10 µM was 89.3%.

For the molecule `CCCNC(=O)C1(Cc2ccccc2-c2ccccc2)CCN(C(=O)c2ccccc2)CC1` [CBK286275], the viability at 28.5 h, 10 µM turned out to be 89.3%.

Take `CN(Cc1ccccc1)CC(O)c1ccc2c(c1)CCCN2C(=O)c1ccccc1F` (stereo not shown) [CBK286278]: the viability at 28.5 h, 10 µM was 88.2%.

For `O=C1CCCC[C@@H]2[C@@H](N1)[C@H](c1ccccc1)CN2Cc1ccnc2ccccc12` [CBK286280], the viability at 28.5 h, 10 µM worked out at 102%.

As for `O=C(c1ccco1)N1CCC(c2nnc(-c3ccccc3)c(-c3ccccc3)n2)CC1` [CBK286282], the viability at 28.5 h, 10 µM came to 86.4%.

In the case of `COc1ccccc1-c1nnc(NCc2ccc3c(c2)OCO3)nc1-c1ccccc1OC` [CBK286284], the viability at 28.5 h, 10 µM was found to be 96.4%.

As to `COc1ccc([C@H]2CN(Cc3ccccc3)[C@@H]3CCN(C(=O)Cc4ccccc4)C[C@H]23)cc1` [CBK286285], the viability at 28.5 h, 10 µM was 108%.

As to `O=C(Nc1cccc(CCc2ccncc2)c1)C1CC(=O)N(Cc2ccncc2)C1` (stereo not shown) [CBK286287], the viability at 28.5 h, 10 µM was determined as 89.6%.

Take `CC(=O)NC1(c2ccccc2)CCN(C(=O)Nc2ccccc2-c2ccccc2)CC1` [CBK286288]: the viability at 28.5 h, 10 µM came to 94.9%.

Turning to `O=C(c1ccccc1)N1C[C@H](c2ccc(F)cc2)[C@H]2CN(CCc3ccccc3)CC[C@H]21` [CBK286291], the viability at 28.5 h, 10 µM amounted to 98.2%.

`COc1cccc(CN2CC[C@@H]3[C@H](C2)[C@@H](c2ccc(F)cc2)CN3C(=O)c2ccccc2)c1` [CBK286292]: the viability at 28.5 h, 10 µM came out at 107%.

Consider `O=C(Cc1ccc(-c2ccccc2)cc1)NCc1nnc(-c2cccs2)o1` [CBK286295], for which the viability at 28.5 h, 10 µM came to 94.3%.

As for `O=C(NCc1nnc(-c2cccs2)o1)C1c2ccccc2Oc2ccccc21` [CBK286297], the viability at 28.5 h, 10 µM is 94.8%.

Take `Cc1ccc(-c2nnc(CNC(=O)c3ccccc3-c3ccccc3)o2)s1` [CBK286298]: the viability at 28.5 h, 10 µM worked out at 89.2%.

Turning to `Cc1ccc(-c2nnc(CNC(=O)C(c3ccccc3)c3ccccc3)o2)s1` [CBK286299], the viability at 28.5 h, 10 µM was determined as 102%.

`Cc1ccc(-c2nnc(CNC(=O)c3cccc(-c4ccc(F)cc4)c3)o2)s1` [CBK286300]: the viability at 28.5 h, 10 µM came out at 109%.

`Cn1ncc(Cl)c1C1CCCCCN1S(=O)(=O)c1ccc2[nH]c(=O)[nH]c(=O)c2c1` (stereo not shown) [CBK286303]: the viability at 28.5 h, 10 µM was determined as 102%.

Regarding `O=C(CN1CCC(O)(Cn2cnc3ccccc32)CC1)c1ccc(-c2ccccc2)cc1` [CBK286306], the viability at 28.5 h, 10 µM worked out at 86.8%.

For `O=C1NC2(CCN(C(=O)CC3c4ccccc4Oc4ccccc43)CC2)Nc2ccccc21` [CBK286307], the viability at 28.5 h, 10 µM stood at 98.8%.

In the case of `CC(C(=O)N1CCC2(CC1)NC(=O)c1ccccc1N2)(c1ccccc1)c1ccccc1` [CBK286308], the viability at 28.5 h, 10 µM worked out at 108%.

As for `COc1cc2c(cc1OC)C1c3ccccc3NC(c3ccccc3F)N1CC2` (stereo not shown) [CBK286311], the viability at 28.5 h, 10 µM was 98.9%.

As for `O=C(Cc1ccc(-c2ccccc2)cc1)N1CCc2nc3ccccc3c(=O)n2CC1` [CBK286312], the viability at 28.5 h, 10 µM is 97.2%.

On to `O=C(c1ccco1)N1CCc2c([nH]c3ccccc23)C12CCN(Cc1ccccc1)CC2` [CBK286313], for which the viability at 28.5 h, 10 µM is 91%.

As for `O=C(CC1c2ccccc2Oc2ccccc21)N1CCc2nc3ccccc3c(=O)n2CC1` [CBK286314], the viability at 28.5 h, 10 µM turned out to be 92.4%.

Take `COc1ccccc1-c1ccc(CNC(Cc2ccsc2)c2nccs2)cc1` (stereo not shown) [CBK286315]: the viability at 28.5 h, 10 µM was 86.7%.

With `CCN(CC)C(=O)CN1C(=O)[C@H]2CCCN2C(=O)c2ccccc21` [CBK286319], the viability at 28.5 h, 10 µM came to 95.5%.

In the case of `OC(CN1CCC(O)(c2ccc3c(c2)OCO3)CC1)c1ccc2c(c1)CCC2` (stereo not shown) [CBK286326], the viability at 28.5 h, 10 µM stood at 99.6%.

In the case of `CC(=O)c1cc(C(=O)Nc2ccc(Oc3ccc4c(c3)OCO4)cc2)cs1` [CBK286327], the viability at 28.5 h, 10 µM amounted to 92.5%.

As for `Cc1ccccc1C1(O)CCN(CC(O)c2ccc3c(c2)CCC3)CC1` (stereo not shown) [CBK286329], the viability at 28.5 h, 10 µM is 88%.

As for `Cc1cccc(C2(O)CCN(CC(O)c3ccc4c(c3)CCC4)CC2)c1` (stereo not shown) [CBK286330], the viability at 28.5 h, 10 µM amounted to 95.3%.

`COc1ccc(C2(O)CCN(CC(O)c3ccc(C(C)(C)C)cc3)CC2)cc1` (stereo not shown) [CBK286333]: the viability at 28.5 h, 10 µM came out at 90.6%.

Take `COc1ccc(C2(O)CCN(CC(O)c3ccc4c(c3)CCC4)CC2)cc1` (stereo not shown) [CBK286334]: the viability at 28.5 h, 10 µM was determined as 95.9%.

Take `COc1ccccc1C1(O)CCN(Cc2ccccc2OCc2ccc3c(c2)OCO3)CC1` [CBK286337]: the viability at 28.5 h, 10 µM turned out to be 80.4%.

As for `COc1cccc(C(O)CN2CCC3(CC2)CC(O)c2cc(C)ccc2O3)c1` (stereo not shown) [CBK286338], the viability at 28.5 h, 10 µM turned out to be 88.4%.

Regarding `COc1cccc(C(O)CN2CCC3(CC2)CC(O)c2cc(Cl)c(C)cc2O3)c1` (stereo not shown) [CBK286342], the viability at 28.5 h, 10 µM is 99.3%.

Turning to `Cc1[nH]c(=O)[nH]c(=O)c1CC(=O)N1CCCCC1CN1CCCCC1` (stereo not shown) [CBK286344], the viability at 28.5 h, 10 µM stood at 98.8%.

For the molecule `OC(CN1CCC2(CC1)CC(O)c1ccccc1O2)c1ccc(-c2ccccc2)cc1` (stereo not shown) [CBK286347], the viability at 28.5 h, 10 µM was determined as 101%.

Regarding `Cc1ccc(N2CCCC2=O)cc1S(=O)(=O)NC(c1ccccc1)c1ccccc1` [CBK286348], the viability at 28.5 h, 10 µM is 85.6%.

As for `Oc1ccc2c(c1)C(O)CC1(CCN(CC(O)c3ccc(-c4ccccc4)cc3)CC1)O2` (stereo not shown) [CBK286351], the viability at 28.5 h, 10 µM is 91.3%.

For the molecule `COc1ccccc1-c1ccc(NS(=O)(=O)c2ccc3c(c2)CCC(=O)N3)cc1` [CBK286353], the viability at 28.5 h, 10 µM is 82.5%.

Take `COc1ccc(N2CCN(CC(O)c3c[nH]c4cc(OC)ccc34)CC2)cc1` (stereo not shown) [CBK286355]: the viability at 28.5 h, 10 µM worked out at 96.1%.

For `Cc1cccnc1C(Cc1ccsc1)NS(=O)(=O)c1ccc2[nH]c(=O)[nH]c(=O)c2c1` (stereo not shown) [CBK286356], the viability at 28.5 h, 10 µM is 111%.

Consider `O=c1[nH]c(=O)c2cc(S(=O)(=O)Nc3ccc(N4CCCCCC4)cc3)ccc2[nH]1` [CBK286361], for which the viability at 28.5 h, 10 µM amounted to 81.4%.

Consider `Cc1cc2ccccc2n1CCCNS(=O)(=O)c1ccc2[nH]c(=O)[nH]c(=O)c2c1` [CBK286362], for which the viability at 28.5 h, 10 µM was determined as 96%.

`CCn1c(C)cc2cc(NS(=O)(=O)c3ccc4[nH]c(=O)[nH]c(=O)c4c3)ccc21` [CBK286363]: the viability at 28.5 h, 10 µM came out at 104%.

As for `O=C1CCc2cc(S(=O)(=O)Nc3ccccc3-c3ccccc3)ccc2N1` [CBK286366], the viability at 28.5 h, 10 µM was 92.6%.

For the molecule `O=C1CCc2cc(S(=O)(=O)Nc3ccccc3Cc3ccccc3)ccc2N1` [CBK286369], the viability at 28.5 h, 10 µM amounted to 87%.

Take `COc1cccc(-c2cccc(NS(=O)(=O)c3ccc4c(c3)CCC(=O)N4)c2)c1` [CBK286372]: the viability at 28.5 h, 10 µM came to 105%.

For orientation: viability means a read-out of living cells in per cent, often relative to untreated cells.
